The target in the assay is T1, Aurora kinase A (Homo sapiens, UniProt O14965).
T1 sequence (O14965 whole entry): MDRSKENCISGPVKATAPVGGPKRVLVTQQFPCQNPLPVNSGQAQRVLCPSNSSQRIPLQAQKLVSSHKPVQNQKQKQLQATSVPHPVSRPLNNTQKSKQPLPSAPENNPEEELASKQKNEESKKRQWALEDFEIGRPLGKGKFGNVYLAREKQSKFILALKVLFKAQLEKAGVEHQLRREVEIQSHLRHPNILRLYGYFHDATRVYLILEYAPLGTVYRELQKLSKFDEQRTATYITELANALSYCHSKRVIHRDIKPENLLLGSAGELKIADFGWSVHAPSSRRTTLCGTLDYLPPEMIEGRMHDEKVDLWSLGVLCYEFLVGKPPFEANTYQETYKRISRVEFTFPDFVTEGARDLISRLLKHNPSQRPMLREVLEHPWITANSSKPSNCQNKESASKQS
As to the kind of experiment: The testing compound was diluted up to 100× final concentration in a 384-well plate. Transfer 250 nL of the compound dilution to a 384-well assay plate using Echo 550.

For orientation: IC50 means the point on the concentration scale where inhibition reaches its midpoint. With `Cc1cc(Nc2cc(F)cc(C[C@@]3(C(=O)O)CCN(Cc4cccc(Cl)c4F)[C@H](C)C3)n2)n[nH]1`, the IC50 came to 1.1 nM.

Source of the values: ChEMBL document CHEMBL5729195, “Heterocyclic compounds useful as aurora a selective inhibitors” (2022).
